Measured values taken from ChEMBL document CHEMBL1124152, “Conformationally constrained renin inhibitory peptides: gamma-lactam-bridged dipeptide isostere as conformational restriction” (J Med Chem, 1988).

Molecular target: T1, Renin (Homo sapiens, UniProt P00797)
T1 sequence (P00797 whole entry): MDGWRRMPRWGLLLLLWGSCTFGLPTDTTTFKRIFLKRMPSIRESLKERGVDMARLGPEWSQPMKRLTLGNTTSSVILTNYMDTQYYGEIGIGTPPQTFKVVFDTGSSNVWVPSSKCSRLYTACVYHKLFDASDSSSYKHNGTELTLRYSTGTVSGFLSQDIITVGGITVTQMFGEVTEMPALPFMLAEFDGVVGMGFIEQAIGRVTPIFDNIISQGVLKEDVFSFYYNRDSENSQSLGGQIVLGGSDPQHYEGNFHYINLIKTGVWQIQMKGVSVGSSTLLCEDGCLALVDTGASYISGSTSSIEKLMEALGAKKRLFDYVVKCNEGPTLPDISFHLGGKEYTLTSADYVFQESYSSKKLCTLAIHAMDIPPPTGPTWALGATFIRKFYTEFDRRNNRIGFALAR
Test: Inhibitory activity against human plasma renin
Type: cell-free

Row | SMILES | IC50
1 | CCCC[C@H](NC(=O)CCc1ccccc1)C(=O)N[C@@H](CC(C)C)[C@@H](O)C[C@H](C(=O)N[C@H](C(=O)NCc1ccccn1)[C@H](C)CC)C(C)C | 120 nM
2 | CCCC[C@H](NC(=O)[C@H](Cc1ccccc1)NC(=O)OCc1ccccc1)C(=O)N[C@@H](CC(C)C)[C@@H](O)C[C@H](C(=O)N[C@H](C(=O)NCc1ccccn1)[C@H](C)CC)C(C)C | 26 nM
3 | CCCC[C@@H](C(=O)N[C@@H](CC(C)C)[C@@H](O)C[C@H](C(=O)N[C@H](C(=O)NCc1ccccn1)[C@H](C)CC)C(C)C)N1CCC(Cc2ccccc2)(NC(=O)OCc2ccccc2)C1=O (stereo in doubt; form 1) | 6.5 nM
4 | CCCC[C@@H](C(=O)N[C@@H](CC(C)C)[C@@H](O)C[C@H](C(=O)N[C@H](C(=O)NCc1ccccn1)[C@H](C)CC)C(C)C)N1CCC(Cc2ccccc2)(NC(=O)OCc2ccccc2)C1=O (stereo in doubt; form 2) | 6.5 nM

Other lines, results leading:

Row | IC50 | SMILES
5 | 350 nM | CCCC[C@H](NC(=O)CCc1ccccc1)C(=O)N[C@@H](CC(C)C)[C@@H](O)CC(=O)N[C@H](C(=O)NCc1ccccn1)[C@H](C)CC
6 | 27 nM | CCCC[C@@H](C(=O)N[C@@H](CC(C)C)[C@@H](O)C[C@H](C(=O)N[C@H](C(=O)NCc1ccccn1)[C@@H](C)CC)C(C)C)N1CCC(Cc2ccccc2)C1=O (stereo in doubt; form 1)
7 | 14 nM | CCCC[C@@H](C(=O)N[C@@H](CC(C)C)[C@@H](O)C[C@H](C(=O)N[C@H](C(=O)NCc1ccccn1)[C@@H](C)CC)C(C)C)N1CCC(Cc2ccccc2)C1=O (stereo in doubt; form 2)

Molecular target: T2, Renin (Homo sapiens) (UniProt P00797)
T2 sequence (whole entry): T1 sequence (P00797 whole entry)
Test: Inhibitory activity against human plasma renin at 10e-5 M
Type: cell-free

Row | inhibition | SMILES
8 | 46% | CCCC[C@@H](C(=O)N[C@@H](CC(C)C)[C@@H](O)CC(=O)N[C@H](C(=O)NCc1ccccn1)[C@H](C)CC)N1CCC(Cc2ccccc2)C1=O (stereo in doubt; form 1)
9 | 46% | CCCC[C@@H](C(=O)N[C@@H](CC(C)C)[C@@H](O)CC(=O)N[C@H](C(=O)NCc1ccccn1)[C@H](C)CC)N1CCC(Cc2ccccc2)C1=O (stereo in doubt; form 2)
